Literature values, collected in publication PMC9406037, “Design, Synthesis and Activity of New N^1-Alkyl Tryptophan Functionalized Dendrimeric Peptides against Glioblastoma” (Biomolecules, 2022).

Experiments:
[1] = test system: U87MG cells cultured in spheroids; settings: 20 µM alone or in combination with iododeoxyuridine (IUdR 1 µM) for 67 h; clonogenicity observed 10 day later
Text: Another important issue which has to be taken into consideration is the time of treatment with potential drugs and mode of action. […] […] However, combined treatment o ...

[2] = alpha-tocopherol at ca 4.4 µM
Text: Taking into account structural differences between these two groups of dendrimers, the possible primary mechanism in the DPPH conditions involves hydrogen and electron transfer from the above electron-rich center and to less extent from numerous indole rings. For the same reasons, the highest reductive capabilities (FRAP) were expressed by compound 24. All compounds were very effective in s ...

Compound | effect on cell viability or clonogenicity [1] | radical scavenging potency relative to Trolox, ABTS model [2] | radical scavenging potency relative to Trolox, DPPH model [2]
trans-3,4,5′-trihydroxystilbene [Resveratrol] | without any effect on cell viability or clonogenicity | much more potent than Trolox | much more potent than Trolox
Cc1c(C)c2c(c(C)c1O)CC[C@@](C)(CCC[C@H](C)CCC[C@H](C)CCCC(C)C)O2 [alpha-tocopherol] |  | ~5.5 | slightly lower
